The numbers were not newly measured in patent US12629369B2, “Pharmaceutical compositions of nilotinib” (AZURITY PHARMACEUTICALS, INC., priority 2019, dated 2026), which cites them from elsewhere.

The structures appear in SMILES notation. Structures can show the parent of a compound that is named as a salt.

The conditions of series [1]: taken with or after meals, particularly high fat meals (Castagnetti et al 2008).

Regarding `Cc1cn(-c2cc(NC(=O)c3ccc(C)c(Nc4nccc(-c5cccnc5)n4)c3)cc(C(F)(F)F)c2)cn1` [Nilotinib hydrochloride], the water solubility entry is “poorly water soluble”.
As for `Cc1cn(-c2cc(NC(=O)c3ccc(C)c(Nc4nccc(-c5cccnc5)n4)c3)cc(C(F)(F)F)c2)cn1` [Nilotinib, 4-methyl-N-[3-(4-methyl-1H-imidazol-1-yl)-5-(trifluoromethyl)phenyl]-3-[[4-(3-pyridinyl)-2-pyrimidinyl]amino]-benzamide], in series [1], the “increase of extent of absorption (area under the plasma profile curve)” value was 82% and the “increase of rate of absorption (Cmax)” value is 112%. Further, the “solubility in aqueous solutions” value (25° C., pH 4.5 and higher) is given as “practically insoluble”.
